Here are results for one molecule from publication PMC5847527, “Identification of a novel 2-oxindole fluorinated derivative as in vivo antitumor agent for prostate cancer acting via AMPK activation” (Scientific Reports, 2018).

The assay concerns AMPK. Kind of assay: Characterization of AMPK activation by Western blot in PC-3 and LNCaP cells (Dorsomorphin, siRNA). Type of assay: cell-based, human. As for the experimental part:
To further confirm the compound 8c-induced activation of AMPK, PC-3 and LNCaP cells were incubated with the compound for 1 h and 24 hours in the presence of the AMPK inhibitor Dorsomorphin. […] Accordingly, ACC phosphorylation was increased at 1 h and 24 h and prevented by Dorsomorphin in both cell lines. AMPK inhibits mTORC1 through phosphorylation of Raptor on two well-conserved serine residues (ser722 and ser792) inducing cell-cycle arrest in response to an energy stress. To further support the 8c-induced AMPK activation, we determined Raptor phosphorylation on Ser792 in prostate cells.
Figure 5 AMPK activation by compound 8c in prostate cancer cells. (A) PC-3 and LNCaP cells were treated with vehicle, 25 µM compound 8c, 25 µM compound 8c + 5 μM Dorsomorphin (8c + D) or 5 μM Dorsomorphin (D), for 1 hour or 24 hours and levels of the phosphorylated AMPK (pAMPK), phosphorylated ACC (pACC), phosphorylated Raptor (pRaptor) forms and HIF1α were determined by Western blot. Upper panel, representative Western blot of three different experiments. β-tubulin (β-Tub) serves as a loading control. Lower panel, densitometric analyses of bands represented as the mean of the ratio pAMPK/AMPK or pACC/ACC. (B) Cell viability monitored by MTT assay in PC-3 and LNCaP cells treated with vehicle, 25 µM and 50 μM compound 8c alone or in the presence of 5 μM Dorsomorphin or transfected with control siRNA (siC) or α1AMPK-selective siRNA (siAMPK). (C) LNCaP cells were treated with vehicle, 25 µM compound 8c, 25 µM compound 8c + 5 μM Dorsomorphin (8c + D) or 5 μM Dorsomorphin (D), for 24 hours and levels of Androgen Receptor (AR), Prostate specific antigen (PSA) and Prostate specific membrane antigen (PSMA) were determined by Western blot.Values were normalized with the control and represent the mean ± SD of at least three independent experiments. *p < 0.05 and **p < 0.01 compared to control and ^#p < 0.05 and ^##p < 0.01 compared with 8c-treated group by the Student’s t-test.
AMPK is a heterotrimeric protein composed by catalytic (α) and regulatory (β and γ) subunits. In mammals, different isoforms of α, β and γ subunits can associate to produce up to 12 AMPK different combinations. […]
Figure 6 Phosphorylation of AMPK and ACC in prostate cells transfected with selective AMPKα1 or AMPKα2 siRNA. […] Levels of the phosphorylated AMPK (pAMPK), phosphorylated ACC (pACC) and their total forms were determined by Western blot. […]
Cells were lysed in Lysis buffer (50 mM Tris pH 7.4, 0.8 M NaCl, 5 mM MgCl2, 0.1% Triton X-100) containing Protease Inhibitor and Phosphatase inhibitor Cocktails (Roche, Basel, Switzerland). Protein concentrations were measured by BioRad™ protein assay kit (Richmond, CA, USA). […]

As to `O=C1Nc2ccccc2C1(F)Cc1ccc(-c2ccccc2)o1` (stereo not drawn) [Compound 8c, 3-fluoro-3-((5-phenylfuran-2-yl)methyl)indolin-2-one], where the note is “PC-3 and LNCaP cells, 25 µM, 24 hours vs 1 hour”, the “activation of AMPK at 24 hours” value is on record as “also seen at 24 hours, being even more robust that at 1 hour of treatment”. The “8c-induced AMPK phosphorylation with AMPKα1 subunit knocked down” value (siRNA AMPKα1, 25 μM, 1 h) is “almost totally blocked”. Also, the “AMPK and ACC phosphorylation with AMPKα2 subunit silenced” value (siRNA AMPKα2, 25 μM, 1 h) was “still was able to phosphorylate AMPK and ACC at a similar level than in non-silenced (siC) cells”.
